Tests used:
[1] = In vivo tests on permeation of rat erythrocytes / detection in rat tissues and excretion; settings: for Qualitative detection in Erythrocytes / Qualitative detection in Plasma / Qualitative detection in Brain / Qualitative detection in Liver / Qualitative detection in Urine: rat, single oral dose 20 mg per Kg
Experimental: The tests are performed on male rats Sprague-Dawley weighting from 250 to 300 g.
The chelating agent 3-hydroxy-2-methyl-4H-1-benzopyran-4-one prepared as in Example 1, vehiculated by 4 parts of β-cyclodextrine for each part of chelating agent, is administered to the rats in a single oral dose comprising 20 mg of chelating agent per Kg of body weight.
The chelating agent 3-hydroxy-2-(5-hydroxypentyl)-4H-1-benzopyran-4-one prepared as in Example 3 is administered to the rats in a single oral dose, comprising 2% of methyl cellulose and 20 mg of chelating agent per Kg of body weight.

[2] = Partition test between n-octanol and aqueous solution pH 7.4; format: physicochemical; settings: for partition between n-octanol and aqueous solution (result in words): n-octanol / aqueous 20 mM tris(hydroxymethyl)aminomethane chlorhydrate pH 7.4, Example 7: concentration 100 mM
Experimental: In particular, partition experiments have been carried out between n-ottanol and an aqueous solution 20 mM of tris(hydroxymethyl)aminomethane chlorohydrate brought to pH=7.4 by adding sodium phosphate, obtaining values of the ripartition coefficient, expressed as the ratio between the concentration of the compound in the organic phase and that in the aqueous phase, tipically higher than 20, for the present formula (I) compounds as well as for the Fe (III) complexes thereof.
The partition coefficient between n-octanol and an aqueous solution 20 mM of tris(hydroxymethyl)aminomethane brought to pH=7.4 by the addition of sodium phosphate has been determined by spectrophotometry at room temperature for 3-hydroxy-2-methyl-4H-1-benzopyran-4-one and for the related Fe(III) complex.
In the aqueous solution the 3-hydroxy-2-methyl-4H-1-benzopyran-4one obtained as described in Example 1 was dissolved in the quantity sufficient to have a concentration equal to 10^−4 M. 5 ml of said solution were centrifuged with 5 ml of n-octanol, and the two resulting phases were separated for a concentration determination on each by spectrophotometry.
The partition coefficient, expressed as the ratio between the concentration of the compound in n-octanol and its concentration in the aqueous solution, resulted 24. In the same aqueous solution above described the Fe(III) complex obtained as in Example 4 was dissolved, in the sufficient quantity to obtain a concentration equal to 2×10^−4 M. 5 ml of said solution are centrifuged with 5 ml of n-octanol, then the two resulting phases were separated for a concentration determination on each by spectrophotometry. A partition coefficient equal to 25 was obtained.
According to the procedure described in Example 6 partition data were determined between n-octanol and an aqueous solution 20 mM of tris(hydroxymethyl)aminomethane chlorhydrate brought to pH 7.4 by addition of sodium phosphate, for 3-hydroxy-2-(5-hydroxypentyl)-4H-1-benzopyran-4-one prepared as in Example 3 as well as for the related Fe(III) complex prepared as in Example 5.
In the aqueous solution 3-hydroxy-2-(5-hydroxypentyl)-4H-1-benzopyran-4-one as prepared in Example 3 was dissolved so to obtain a concentration equal to 100 mM. 5 ml of said solution were centrifuged with 5 ml of n-octanol, then the two resulting phases, the aqueous and the organic one, were separated for a concentration determination on each by spectrophotometry.
The same experiment was repeated by dissolving the Fe(III) complex prepared as in Example 5 in the above described aqueous solution.

erythrocytes = test: In vitro tests on permeation into erythrocytes; format: in vitro ADME, rat; settings: for found in the aqueous medium containing the phosphate buffer after resuspension of loaded erythrocytes: loaded erythrocytes resuspended in fresh buffer; for found in the aqueous medium containing the phosphate buffer after resuspension of loaded erythrocytes / found in the plasmatic medium after resuspension of loaded erythrocytes / distribution between previously overloaded erythrocytes and the aqueous medium of resuspension: further 30 minutes at 37 C; for found in the plasmatic medium after resuspension of loaded erythrocytes: loaded erythrocytes resuspended in their plasma; for distribution between previously overloaded erythrocytes and the aqueous medium of resuspension: loaded erythrocytes resuspended in fresh plasma or fresh buffer; for time in which a balance between intracellular and extracellular environment is reached: rat erythrocytes
Experimental: Solutions of 3-hydroxy-2-methyl-4H-1-benzopyran-4-one prepared as in Example 1 and the related Fe(III) complex obtained in acetone as in Example 4 were used for suitable sampling in incubation flasks. For the complex acetone is evaporated, and the biologic samples are then added to the residue. Whole blood of rat deprived of leucocytes, or alternatively erythrocytes washed and resuspended in 127 mM of sodium phosphate 50% buffer (pH=7.4) and containing 23 mM of NaCl, were added into the incubation flasks and incubated at 37° C. for 15 and respectively 30 minutes.
At those times erythrocytes were separeted by centrifugation and separately extracted together with the supernatants with 2 volumes of ethyl acetate. The related quantities of the tested substances were measured by spectrophotometry in ethyl acetate and compared with suitable standards. After 30 minutes of incubation the 3-hydroxy-2-methyl-4H-1-benzopyran-4-one as well as the related Fe(III) complex were found in the erythrocytes for 51% and for 49% in the aqueous medium. After 30 minutes of incubation 50% of the sedimented erythrocytes are resuspended in their fresh plasma and the remaining 50% in fresh buffer.
Erhytrocytes of rat were separated from their plasma deprived of leucocytes. Part of the erythrocytes were resuspended in sodium phosphate 50% buffer (pH=7.4), and another part of the erythrocytes were joined to part of their plasma so to obtained a 50% hematocrit. To both suspensions were added alternatively 100 mg/l of 3-hydroxy-2-(5-hydroxypentyl)-4H-benzopyran-4-one prepared as in Example 3 and 50 mg/l of the related Fe(III) complex prepared as in Example 5, and the incubation was made at 37° C. After 30 minutes the erythrocytes were separated by centrifugation and extracted separately together with supernatants with ethyl acetate. The quantities of the tested substances were measured by spectrophotometry in ethyl acetate and compared to suitable standards.
After 30 minutes incubation the 40% of 3-hydroxy-2-(5-hydroxypenthyl)-4H-1-benzopyran-4-one, as well as of the ferric complex thereof, were found in the erythrocytes and the remaining 60% in the medium represented by plasma. When the medium is the phosphate buffer the 60% of the tested compounds were found in erythrocytes and the remaining 40% in the medium.
After sedimentation 50% of the erythrocytes containing the tested compounds was resuspended in their plasma and the remaining 50% in fresh buffer. After a further 30 minutes incubation at 37° C. 60% of 3-hydroxy-2-(5-hydroxypentyl)-4H-1-benzopyran-4-one and of the related complex were found in the plasmatic medium and the remaining 40% in the aqueous medium containing the phosphate buffer. Therefore the chelating agent as well as the related ferric complex do permeate into cellular membranes in both directions, and are uniformly distributed in the intracellular and in the extracellular environment.

[3] = In vivo tests on permeation of rat erythrocytes / detection in rat tissues and excretion; settings: rats, 20 mg per Kg in DMSO by intraperitoneal route; 15, 30 and 60 minutes after treatment
[4] = Stability constant of the Fe(III) complex by cyclic voltammetry; format: physicochemical
Experimental: wherein R5 is CH3, has been measured by voltammetry with a Pt electrode as the working electrode and with a calomel electrode as the reference electrode, obtaining a stability constant equal to 3.0×10^10.
The complexation cynetics has been moreover studied by cyclic voltammetry with a Pt electrode as the working electrode and a calomel electrode as the reference electrode, in the following conditions:ferric perchlorate (7 mg) is dissolved in 20 ml of a NaCl solution 150 mM containing 5% of DMSO, and this solution is put into the voltammetric cell for the plot registration; from this plot the half-wave potential for the ferric salt can be deduced: (E½)s Fe^3+/Fe^2+=0.420 V.
3-hydroxy-2-methyl-4H-1-benzopyran-4-one (10.5 mg) is dissolved in DMSO (3 ml), and with the so obtained solution 4 additions are made to the voltammetric cell, registering the cyclic voltammetric plot after every addition. […]
The stability constant of the complex is calculated according to the following formula: [formula]
wherein (E½)s e (E½)c are the half-wave potential of the salt and, respectively, of the complex above reported, n is the number of electrons, β is the stability constant of the complex and c is its concentration, and p is the number of chelating agent molecules in the complex. The so calculated value of the stability constant is […].

[5] = medium phosphate buffer pH 7.4, 37 C, 30 minutes, 100 mg/l ligand or 50 mg/l complex
[6] = medium plasma, 50% hematocrit, 37 C, 30 minutes, 100 mg/l ligand or 50 mg/l complex
[7] = male Sprague-Dawley rats, single oral dose 20 mg per Kg with beta-cyclodextrine
[8] = rat whole blood deprived of leucocytes or washed erythrocytes in phosphate buffer pH 7.4, 37 C, 30 minutes incubation

In the case of `O=c1c(O)c(CCCCCO)oc2ccccc12` [3-hydroxy-2-(5-hydroxypentyl)-4H-1-benzopyran-4-one], the presence in urine ([1]; male Sprague-Dawley rats, single oral dose 20 mg per Kg in 2% methyl cellulose, 12, 24 and 48 hours from administration) is reported as “has been revealed”, the presence in plasma ([1]; rats, 20 mg per Kg in DMSO by intraperitoneal route, 15, 30 and 60 minutes after treatment) is reported as “has been revealed” and the melting point is reported as 111 to 112 °C. For the same compound, the “partition between n-octanol and aqueous solution (result in words)” value [2] was “completely pass in the alcoholic phase”, the “found in the aqueous medium containing the phosphate buffer after resuspension of loaded erythrocytes” value (erythrocytes) was 40% and the “found in the plasmatic medium after resuspension of loaded erythrocytes” value (erythrocytes) was 60%. For the same compound, the found in erythrocytes (erythrocytes; [5]) was 60%, the “found in the medium” value (erythrocytes; [5]) was 40% and the “found in the erythrocytes” value (erythrocytes; [6]) was 40%. The “found in the medium” value (erythrocytes; [6]) was 60% and the presence in erythrocytes [3] was “has been revealed”.

With `Cc1oc2ccccc2c(=O)c1O` [3-hydroxy-2-methyl-4H-1-benzopyran-4-one] the “presence in urine (onset)” value [1, 7] was “starting from twenthyfourth hour”, the “time of maximum presence (erythrocytes, brain and liver)” value [1, 7] was “maximum in the fourth hour” and the “presence in erythrocytes, brain and liver (first detection)” value ([1]; male Sprague-Dawley rats, single oral dose 20 mg per Kg with beta-cyclodextrine, spectrophotometry and fluorimetry) was “found already in the first hour”. The “Qualitative detection in Erythrocytes” value ([1]; 1/2 hr after administration) was “p(+)”, the “Qualitative detection in Plasma” value ([1]; 1/2 hr after administration) was “p(+)” and the “Qualitative detection in Brain” value ([1]; 1 hr after administration) was “p(+)”. The “Qualitative detection in Erythrocytes” value ([1]; 1 hr after administration) was “p(++)”, the “Qualitative detection in Liver” value ([1]; 1 hr after administration) was “p(+)” and the “Qualitative detection in Plasma” value ([1]; 1 hr after administration) was “p(++)”. The “Qualitative detection in Brain” value ([1]; 4 hr after administration) was “p(++)”, the “Qualitative detection in Erythrocytes” value ([1]; 4 hr after administration) was “p(+++)” and the “Qualitative detection in Liver” value ([1]; 4 hr after administration) was “p(+++)”. For the same compound, the “Qualitative detection in Plasma” value ([1]; 4 hr after administration) was “p(++)”, the “Qualitative detection in Urine” value ([1]; 4 hr after administration) was “p(+)” and the “Qualitative detection in Brain” value ([1]; 24 hr after administration) was “p(++)”. The “Qualitative detection in Liver” value ([1]; 24 hr after administration) was “p(++)”, the “Qualitative detection in Urine” value ([1]; 24 hr after administration) was “p(++)” and the “Qualitative detection in Urine” value ([1]; 48 hr after administration) was “p(+++)”. The melting point was 179 to 180 °C, the logD ([2]; n-octanol / aqueous 20 mM tris(hydroxymethyl)aminomethane pH 7.4, room temperature, spectrophotometry, ligand 10^-4 M, complex 2x10^-4 M, read-out: partition coefficient (concentration in n-octanol / concentration in aqueous solution) (converted)) was 1.38 and the “distribution between previously overloaded erythrocytes and the aqueous medium of resuspension” value (erythrocytes) was “equally distributed”. The “time in which a balance between intracellular and extracellular environment is reached” value (erythrocytes; 37 C) was “ca. 30 minutes”, the “found in the aqueous medium” value (erythrocytes; [8]) was 49% and the “found in the erythrocytes” value (erythrocytes; [8]) was 51%.

In the case of “Fe(III) complex of 3-hydroxy-2-(5-hydroxypentyl)-4H-1-benzopyran-4-one”, the “partition between n-octanol and aqueous solution (result in words)” value [2] is reported as “completely pass in the alcoholic phase”, the “found in the aqueous medium containing the phosphate buffer after resuspension of loaded erythrocytes” value (erythrocytes) is reported as 40% and the “found in the plasmatic medium after resuspension of loaded erythrocytes” value (erythrocytes) is reported as 60%. The found in erythrocytes (erythrocytes; [5]) was 60%, the “found in the medium” value (erythrocytes; [5]) was 40% and the “found in the erythrocytes” value (erythrocytes; [6]) was 40%. The “found in the medium” value (erythrocytes; [6]) was 60%.

With “Fe(III) complex of 3-hydroxy-2-methyl-4H-1-benzopyran-4-one” the “partition coefficient (concentration in n-octanol / concentration in aqueous solution)” value ([2]; n-octanol / aqueous 20 mM tris(hydroxymethyl)aminomethane pH 7.4, room temperature, spectrophotometry, ligand 10^-4 M, complex 2x10^-4 M) was 25, the “distribution between previously overloaded erythrocytes and the aqueous medium of resuspension” value (erythrocytes) was “equally distributed” and the “time in which a balance between intracellular and extracellular environment is reached” value (erythrocytes; 37 C) was “ca. 30 minutes”. For the same compound, the “found in the aqueous medium” value (erythrocytes; [8]) was 49%, the “found in the erythrocytes” value (erythrocytes; [8]) was 51% and the “half-wave potential of the complex (E1/2) Fe3+/Fe2+” value ([4]; cyclic voltammetry, after first addition of 0.5 ml chelating agent solution in DMSO) was 0.120 V. The “stability constant of the Fe(III) complex” value ([4]; voltammetry, Pt working electrode, calomel reference electrode, NaCl 150 mM containing 5% DMSO) was 3.0×10^10.
